How the values were obtained:
TRPV1 receptor = molecular target: T1, TRPV1 receptor (Rattus norvegicus, UniProt O35433); test: Test for inhibition of the current induced by capsaicin on rat DRGs (whole-cell patch-clamp); type: cell-based; settings: DRG neuron; compound at 10 nM; % inhibition of the control capsaicin response; newborn rat DRG neurons
T1 construct: The neurons of the DRG naturally express the TRPV1 receptor; endogenous in cells; host or cells: primary culture of newborn rat dorsal root ganglion neurons
T1 sequence (O35433 whole entry): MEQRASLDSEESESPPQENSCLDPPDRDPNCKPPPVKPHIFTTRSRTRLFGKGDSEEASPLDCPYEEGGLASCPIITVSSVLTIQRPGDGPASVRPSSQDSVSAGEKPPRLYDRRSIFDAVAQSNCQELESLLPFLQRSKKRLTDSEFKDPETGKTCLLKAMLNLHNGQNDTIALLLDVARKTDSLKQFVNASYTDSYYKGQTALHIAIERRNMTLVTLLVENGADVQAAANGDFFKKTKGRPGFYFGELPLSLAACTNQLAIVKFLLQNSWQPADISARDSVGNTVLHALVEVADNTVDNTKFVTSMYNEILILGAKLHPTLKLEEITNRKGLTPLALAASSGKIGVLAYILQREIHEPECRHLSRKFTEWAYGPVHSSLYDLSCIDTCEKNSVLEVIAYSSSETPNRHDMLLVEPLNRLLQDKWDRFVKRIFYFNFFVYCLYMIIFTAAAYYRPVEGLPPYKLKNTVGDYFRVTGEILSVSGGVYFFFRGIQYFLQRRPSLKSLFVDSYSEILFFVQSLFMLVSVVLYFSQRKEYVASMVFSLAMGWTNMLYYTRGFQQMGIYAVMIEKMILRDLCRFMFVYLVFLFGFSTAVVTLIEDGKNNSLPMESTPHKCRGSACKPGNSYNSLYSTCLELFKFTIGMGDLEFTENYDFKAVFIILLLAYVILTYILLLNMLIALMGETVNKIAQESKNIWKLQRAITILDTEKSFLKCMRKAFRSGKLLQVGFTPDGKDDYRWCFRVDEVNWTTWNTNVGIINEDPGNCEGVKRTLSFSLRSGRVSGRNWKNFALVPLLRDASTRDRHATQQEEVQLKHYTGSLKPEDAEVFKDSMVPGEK
Description: Test for Inhibition of the Current Induced by Capsaicin on Rat DRGs
Primary Culture of Rat Dorsal Root Ganglion (DRG) Cells:
The neurons of the DRG naturally express the TRPV1 receptor.
Newborn rat DRG primary cultures are prepared from 1-day-old rat pups. Briefly, after dissection, the ganglia are trypsinized and the cells are mechanically dissociated by controlled trituration. The cells are resuspended in an Eagle's basal culture medium containing 10% of fetal calf serum, 25 mM KCl, 2 mM glutamine, 100 μg/ml gentamicin and 50 ng/ml of NGF, and then deposited onto laminin-coated glass cover slips (0.25×10^6 cells per cover slip) which are then placed in 12-well Corning dishes. The cells are incubated at 37° C. in a humidified atmosphere containing 5% CO2 and 95% air. […]
The measuring chambers (volume 800 μl) containing the cell preparation are placed on the platform of an inverted microscope (Olympus IMT2) equipped with Hoffman optics (Modulation Contrast, New York), and observed at the magnification of ×400. […] The overall currents (membrane potential fixed at −60 mV) are recorded with an Axopatch 1D amplifier (Axon Instruments, Foster City, Calif.), connected to a PC controlled by Pclamp8 software (Axon Instrument). The current traces are recorded on paper and simultaneously digitized (sampling frequency 15 to […]) and acquired on the hard drive of the PC. […]

TRPV1 receptors = molecular target: T2, TRPV1 receptors (Mus musculus, UniProt Q704Y3); test: Mouse corneal irritation test (capsaicin-induced eye rubbing); type: in vivo; settings: compound 500 μM, 2 μl on the cornea 10 minutes before capsaicin 160 μM; eye rubs counted over 2 minutes
T2 construct: application of a very small amount of capsaicin (2 μl at a concentration of 160 μM) to the surface of the cornea of an animal; from tissue; host or cells: mouse cornea in vivo (C fibres)
T2 sequence (Q704Y3 whole entry): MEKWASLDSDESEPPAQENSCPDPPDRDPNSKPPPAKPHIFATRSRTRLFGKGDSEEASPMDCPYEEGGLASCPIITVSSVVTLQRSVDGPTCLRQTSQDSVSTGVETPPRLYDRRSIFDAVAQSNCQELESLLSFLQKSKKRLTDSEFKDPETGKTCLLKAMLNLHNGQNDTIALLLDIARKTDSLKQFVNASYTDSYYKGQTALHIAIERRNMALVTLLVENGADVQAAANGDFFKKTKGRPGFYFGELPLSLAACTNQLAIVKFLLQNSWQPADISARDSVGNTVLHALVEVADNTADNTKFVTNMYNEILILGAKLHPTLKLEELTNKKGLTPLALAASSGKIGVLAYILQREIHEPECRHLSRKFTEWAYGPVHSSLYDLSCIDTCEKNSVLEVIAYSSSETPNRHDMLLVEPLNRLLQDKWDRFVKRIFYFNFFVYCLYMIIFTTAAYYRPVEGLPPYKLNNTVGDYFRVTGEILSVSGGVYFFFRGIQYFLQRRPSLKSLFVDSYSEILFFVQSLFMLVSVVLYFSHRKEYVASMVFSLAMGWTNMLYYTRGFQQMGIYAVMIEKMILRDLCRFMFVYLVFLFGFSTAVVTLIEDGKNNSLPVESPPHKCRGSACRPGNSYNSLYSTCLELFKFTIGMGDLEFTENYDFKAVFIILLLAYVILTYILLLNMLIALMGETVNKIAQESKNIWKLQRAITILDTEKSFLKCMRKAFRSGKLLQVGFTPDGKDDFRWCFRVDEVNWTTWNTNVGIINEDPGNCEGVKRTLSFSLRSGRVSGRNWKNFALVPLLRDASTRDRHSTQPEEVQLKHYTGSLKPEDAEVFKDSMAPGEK
Description: Mouse Corneal Irritation Test
The irritant nature of capsaicin can be readily assessed at the level of the cornea since this organ is one of the most innervated by C fibers. In this context, according to the preliminary experiments, the application of a very small amount of capsaicin (2 μl at a concentration of 160 μM) to the surface of the cornea of an animal results in a certain number of stereotyped behaviors associated with the irritation and that can be readily listed. Among these are: blinking of the eye, rubbing of the eye instilled with the ipsilateral forelimb, rubbing of the face with both forelimbs, scratching of the ipsilateral face with the hind limb. […] Its appearance is, moreover, also normal. […] It can be concluded from this that the duration of action of capsaicin at these doses is less than 2 minutes.
Summary of the Methodology:
The principle of the series of experiments is to determine whether the compounds of the invention can influence the behavioral response induced by a given amount of capsaicin. The capsaicin is initially diluted to 25 mM in DMSO and diluted, for its final use, in physiological saline with 10% Tween 80. It appears, based on control studies, that, under these conditions, the solvent has no effect.
In practice, the product to be tested, prepared at 25 mM in DMSO and diluted for its final use in physiological saline with 10% Tween 80, at the highest concentration of 500 μM, is administered by local application to the surface of the cornea in a volume of 2 μl, 10 minutes before the application of the capsaicin. The animal receives the ocular instillation of 2 μl of a solution of capsaicin at […] prepared as indicated above. Over the course of a period of observation of 2 minutes following the instillation, the number of times the instilled eye is rubbed by the ipsilateral forelimb is counted for each animal.
For a given group, the percentage protection is calculated as follows: P=100−((average number of scratches of the group treated with the compound/average number of scratches of the group treated with the solvent)×100). […]

Compound	inhibition at 0.01 µM (TRPV1 receptor) [%]	% P 500 μM (percentage protection) (TRPV1 receptors) [%]	other results
O=C(Nc1ccc2nc3ncccn3c2c1)c1cc2cc(F)ccc2n1Cc1cccc(F)c1			melting point: 295 to 298 °C
O=C(Nc1ccc2c(c1)nc1n2CCCC1)c1cc2cc(F)ccc2n1Cc1ccncc1 [Compound 1, N-(1,2,3,4-tetrahydropyrido[1,2-a]benzimidazol-7-yl)-5-fluoro-1-[(pyridin-4-yl)methyl]-1H-indole-2-carboxamide]	37		
O=C(Nc1ccc2c(c1)nc1n2CCC1)c1cc2cc(F)ccc2n1Cc1ccncc1 [Compound 5, N-(2,3-dihydro-1H-pyrrolo[1,2-a]benzimidazol-6-yl)-5-fluoro-1-[(pyridin-4-yl)methyl]-1H-indole-2-carboxamide]	53		
O=C(Nc1ccc2c(c1)nc1n2CCC1)c1cc2cc(C(F)(F)F)cnc2n1Cc1ccccc1 [Compound 8, N-(2,3-dihydro-1H-pyrrolo[1,2-a]benzimidazol-6-yl)-1-benzyl-5-trifluoromethyl-1H-pyrrolo[2,3-b]pyridine-2-carboxamide]		71	
O=C(Nc1ccc2nc3n(c2c1)CCOC3)c1cc2cc(F)ccc2n1Cc1cccc(F)c1 [Compound 15, N-(3,4-dihydro-1H-oxazino[1,4][4,3-a]benzimidazol-7-yl)-5-fluoro-1-(3-fluorobenzyl)-1H-indole-2-carboxamide]		56	
CC1CN=C2Nc3ccc(NC(=O)c4cc5cc(F)ccc5n4Cc4cccc(F)c4)cc3N21 (stereo not drawn) [Compound 26, N-(2,3-dihydro-3-methylimidazo[1,2-a]benzimidazol-6-yl)-5-fluoro-1-(3-fluorobenzyl)-1H-indole-2-carboxamide]		46	

Reference: patent US8143248B2, “Tricyclic N-heteroaryl-carboxamide derivatives containing a benzimidazole unit, method for preparing same and their therapeutic use” (Sanofi-Aventis, priority 2006, dated 2012)
